Measurements from ChEMBL document CHEMBL1777705, “Naphthol derivatives as TRPV1 inhibitors for the treatment of urinary incontinence” (Bioorg Med Chem Lett, 2011).
≈ marks a conversion by molar mass, not a printed value.

Columns and labels:
[1] = target: Transient receptor potential cation channel subfamily V member 1 (Homo sapiens, UniProt Q8NER1); assay: Antagonist activity at human TRPV1 expressed in CHO cells co-expressing aequorin and CRE-luciferase reporter gene assessed as inhibition of capsaicin-induced calcium flux; assay type: functional, cell-based
[2] = target: Transient receptor potential cation channel subfamily V member 1 (Rattus norvegicus, UniProt O35433); assay: Antagonist activity at rat TRPV1 expressed in CHO cells co-expressing aequorin and CRE-luciferase reporter gene assessed as inhibition of capsaicin-induced calcium flux; assay type: functional, cell-based
Rattus norvegicus [3] = assay: Inhibition of cyclophosphamide-induced voiding frequency in iv dosed Sprague-Dawley rat cystitis model; assay type: functional, organism-based
Rattus norvegicus [4] = assay: Inhibition of cyclophosphamide-induced bladder capacity in iv dosed Sprague-Dawley rat cystitis model; assay type: functional, organism-based
Rattus norvegicus [5] = assay: Inhibition of capsaicin-induced micturition frequency in Sprague-Dawley rat overactive bladder model at 10 mg/kg, iv relative to control; assay type: functional
[6] = Solubility of the compound; assay type: physicochemical
[7] = Oral bioavailability in Sprague-Dawley rat; assay type: ADME, organism-based; conditions: in vivo
Rattus norvegicus [8] = assay: Dose normalized AUC in po dosed rat; assay type: ADME, organism-based; conditions: in vivo
Rattus norvegicus [9] = assay: Inhibition of capsaicin-induced micturition frequency in Sprague-Dawley rat overactive bladder model at 3 mg/kg, iv relative to control; assay type: functional

Chain of Transient receptor potential cation channel subfamily V member 1 (Homo sapiens, UniProt Q8NER1) (Q8NER1 whole entry): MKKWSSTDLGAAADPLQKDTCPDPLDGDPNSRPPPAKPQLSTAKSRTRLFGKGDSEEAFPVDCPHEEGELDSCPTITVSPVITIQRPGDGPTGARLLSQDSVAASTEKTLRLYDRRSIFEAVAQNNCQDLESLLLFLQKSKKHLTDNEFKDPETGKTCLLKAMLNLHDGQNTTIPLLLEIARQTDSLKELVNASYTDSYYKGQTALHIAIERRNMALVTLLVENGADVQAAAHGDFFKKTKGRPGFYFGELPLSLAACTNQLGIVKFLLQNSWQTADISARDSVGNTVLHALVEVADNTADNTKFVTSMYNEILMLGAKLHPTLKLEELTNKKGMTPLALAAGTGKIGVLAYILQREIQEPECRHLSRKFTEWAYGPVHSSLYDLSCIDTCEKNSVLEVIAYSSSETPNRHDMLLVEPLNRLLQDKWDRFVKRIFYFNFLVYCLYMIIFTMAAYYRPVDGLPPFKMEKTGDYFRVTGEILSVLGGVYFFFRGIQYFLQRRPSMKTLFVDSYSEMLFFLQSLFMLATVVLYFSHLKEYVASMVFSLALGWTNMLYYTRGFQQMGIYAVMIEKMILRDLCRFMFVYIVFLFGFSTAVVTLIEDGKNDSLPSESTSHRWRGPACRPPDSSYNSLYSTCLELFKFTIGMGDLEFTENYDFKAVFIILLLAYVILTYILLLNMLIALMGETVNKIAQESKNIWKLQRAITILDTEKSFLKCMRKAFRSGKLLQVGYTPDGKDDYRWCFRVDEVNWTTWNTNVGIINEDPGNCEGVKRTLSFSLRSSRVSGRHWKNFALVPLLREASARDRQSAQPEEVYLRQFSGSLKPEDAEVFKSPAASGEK
Chain of Transient receptor potential cation channel subfamily V member 1 (Rattus norvegicus, UniProt O35433) (O35433 whole entry): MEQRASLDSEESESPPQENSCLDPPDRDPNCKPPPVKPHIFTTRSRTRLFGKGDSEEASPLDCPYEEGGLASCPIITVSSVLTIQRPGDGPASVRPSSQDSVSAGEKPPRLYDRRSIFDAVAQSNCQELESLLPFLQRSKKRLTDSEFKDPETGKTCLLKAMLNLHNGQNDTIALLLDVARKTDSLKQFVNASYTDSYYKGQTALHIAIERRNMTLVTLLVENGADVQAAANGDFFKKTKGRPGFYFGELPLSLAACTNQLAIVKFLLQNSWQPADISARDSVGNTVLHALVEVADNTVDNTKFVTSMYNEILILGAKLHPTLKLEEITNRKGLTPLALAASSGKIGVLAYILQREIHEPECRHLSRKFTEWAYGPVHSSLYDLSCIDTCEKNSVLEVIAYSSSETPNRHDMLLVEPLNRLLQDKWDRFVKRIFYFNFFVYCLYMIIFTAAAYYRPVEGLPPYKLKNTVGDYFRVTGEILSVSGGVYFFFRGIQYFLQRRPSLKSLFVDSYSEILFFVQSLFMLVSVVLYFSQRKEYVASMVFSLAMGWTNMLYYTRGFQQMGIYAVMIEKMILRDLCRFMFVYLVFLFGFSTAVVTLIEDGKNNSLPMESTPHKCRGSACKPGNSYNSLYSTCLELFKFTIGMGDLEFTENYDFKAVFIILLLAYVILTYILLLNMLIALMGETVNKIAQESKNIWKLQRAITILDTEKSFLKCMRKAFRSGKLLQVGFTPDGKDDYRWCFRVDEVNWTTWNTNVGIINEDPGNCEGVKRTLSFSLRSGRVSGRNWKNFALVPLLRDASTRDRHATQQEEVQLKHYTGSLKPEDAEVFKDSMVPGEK

| Structure (SMILES) | IC50 [1] [nM] | IC50 [2] [nM] | other results |
| --- | --- | --- | --- |
| O=C(Nc1cccc(C(F)(F)F)c1)Nc1cccc2ccc(O)cc12 | 3.5 | 4.5 |  |
| O=C(Nc1ccc(Cl)c(C(F)(F)F)c1)Nc1c(Cl)c(Cl)cc2ccc(O)cc12 |  |  | inhibition (Rattus norvegicus [3]): Dose-dependent effect; inhibition (Rattus norvegicus [4]): Dose-dependent effect; inhibition in vivo at 10 mg/kg (Rattus norvegicus [5]): 55%; solubility [6]: 0.03 µg/mL (≈ 0.0667 µM); bioavailability [7]: 3%; AUC (Rattus norvegicus [8]): 0.084 µg·h/mL |
| O=C(Nc1ccc(Cl)cc1Cl)Nc1cccc2ccc(O)cc12 | 12 | 16 |  |
| CC(=O)c1cccc(NC(=O)Nc2cccc3ccc(O)cc23)c1 | 28 | 39 |  |
| O=C(Nc1ccc(Cl)c(C(F)(F)F)c1)Nc1c(Br)c(Br)cc2ccc(O)cc12 |  |  | inhibition in vivo at 10 mg/kg (Rattus norvegicus [5]): 65%; inhibition in vivo at 3 mg/kg (Rattus norvegicus [9]): 11%; AUC (Rattus norvegicus [8]): 0.596 µg·h/mL |
| O=C(Nc1ccc(Cl)c(C(F)(F)F)c1)Nc1c(Cl)ccc2ccc(O)cc12 | 3.4 | 4.5 | AUC (Rattus norvegicus [8]): 0.003 µg·h/mL |
| O=C(Nc1ccc(C(F)(F)F)cc1)Nc1cccc2ccc(O)cc12 | 5.4 | 4.9 |  |
| O=C(Nc1ccccc1C(F)(F)F)Nc1cccc2ccc(O)cc12 | 87 | 64 |  |
| O=C(Cc1cccc(F)c1)Nc1cccc2ccc(O)cc12 | > 1000 |  |  |
| O=C(Nc1cccc(C(=O)O)c1)Nc1cccc2ccc(O)cc12 | 520 | 270 |  |
| O=C(Nc1cccc([N+](=O)[O-])c1)Nc1cccc2ccc(O)cc12 | 7.5 | 14 |  |
| CSc1cccc(NC(=O)Nc2cccc3ccc(O)cc23)c1 | 3.9 | 7.1 |  |
| O=C(Nc1ccc(Cl)c(C(F)(F)F)c1)Nc1c(Cl)c(Br)cc2ccc(O)cc12 |  |  | inhibition in vivo at 3 mg/kg (Rattus norvegicus [9]): 88%; AUC (Rattus norvegicus [8]): 0.477 µg·h/mL |
| COc1cccc(NC(=O)Nc2cccc3ccc(O)cc23)c1 | 8 | 8.6 |  |
| CCOC(=O)c1cccc(NC(=O)Nc2cccc3ccc(O)cc23)c1 | 1.7 | 1.6 |  |
| O=C(NCc1cccc(O)c1)Nc1cccc(F)c1 | > 1000 | > 1000 |  |
| O=C(Cc1cccc2ccc(O)cc12)Nc1ccc(Cl)c(C(F)(F)F)c1 | 34 |  |  |
| COc1ccc2cccc(NC(=O)Nc3ccc(Cl)c(C(F)(F)F)c3)c2c1 |  |  | AUC (Rattus norvegicus [8]): 0.114 µg·h/mL |
